From patent US9409905B2, “Antibacterial compounds and methods for use” (PTC THERAPEUTICS, INC., priority 2011, dated 2016)
Values after ≈ are worked out from the molar mass of the structure shown.

Key:
[1] = test system: Pseudomonas aeruginosa (P. aeruginosa) 27853; test: Antibacterial activity, MIC (Table 5); assay type: cell-based; settings: P. aeruginosa 27853, read-out: MIC, 27853
How it was run: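 Activity was measured by microbroth dilution. The MIC, in μg/mL, is the lowest drug concentration that prevents macroscopically visible growth under the test conditions.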

[2] = test system: Acinetobacter baumannii (A. baumannii) BAA747; test: Antibacterial activity, MIC (Table 4); assay type: cell-based; settings: A. baumannii BAA747, read-out: MIC, BAA747
How it was run: (§1)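 Values are MICs in μg/mL, read as the lowest compound concentration at which no growth is visible by eye. They come from a microbroth dilution method.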

[3] = test system: Klebsiella pneumoniae (K. pneumoniae) 35657; test: Antibacterial activity, MIC (Table 4); assay type: cell-based; settings: K. pneumoniae 35657, read-out: MIC, 35657
How it was run: as §1

[4] = test system: Escherichia coli (E. coli) BAS849; test: Antibacterial activity, microbroth dilution MIC (Table 1); assay type: cell-based; settings: microbroth dilution, super sensitive Gram-negative E. coli BAS849, read-out: MIC, BAS849
How it was run: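 Broth microdilution against S. aureus 29213, E. coli 25922 and hypersensitive E. coli BAS849. MIC in μg/mL is the lowest drug concentration preventing macroscopically visible growth under test conditions.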

[5] = test system: Staphylococcus aureus (S. aureus) 29213; test: as above; assay type: cell-based; settings: microbroth dilution, Gram-positive S. aureus 29213, read-out: MIC, 29213
How it was run: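 Microbroth dilution was used. MIC, in μg/mL, is the lowest drug concentration preventing macroscopically visible growth under the test conditions.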

[6] = test system: E. coli LZ3111; test: Antibacterial activity, MIC, quinolone resistant strain (Table 2); assay type: cell-based; settings: Escherichia coli, LZ3111, read-out: MIC LZ3111
How it was run: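 Microbroth dilution method; MIC (μg/mL) is the lowest drug concentration preventing macroscopically visible growth under test conditions.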

[7] = test system: E. coli 25922; test: Antibacterial activity, microbroth dilution MIC (Table 1); assay type: cell-based, Escherichia coli; settings: Escherichia coli; microbroth dilution; control Gram-negative E. coli 25922 strain; read-out: MIC, 25922
How it was run: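 Each strain is exposed to test compound in a microbroth dilution series; visible growth is scored macroscopically, and the lowest growth-free concentration is recorded as MIC in μg/mL.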

[8] = test system: K. pneumoniae MXX1232; test: Antibacterial activity, MIC, resistant strain (Table 4); assay type: cell-based; settings: Klebsiella pneumoniae, MXX1232; resistant K. pneumoniae MMX1232, multi-drug resistant clinical isolate; read-out: MIC, MMX1232
How it was run: as §1

[9] = test system: A. baumannii MXX2240; test: as above; assay type: cell-based; settings: Acinetobacter baumannii, MXX2240; resistant A. baumannii MMX2240, multi-drug resistant clinical isolate; read-out: MIC, MMX2240
How it was run: as §1

Structure (SMILES)	MIC [1]	MIC [2]	MIC [3]	MIC [4]	MIC [5]	MIC [6]	MIC [7]	MIC [8]	MIC [9]
CCc1c(-c2ccc3c(c2)cc2n3CC(N)C2)[nH]c(=O)c(C(=O)O)c1O.Cl (stereo not drawn) [Cpd 413, 6-(2-amino-2,3-dihydro-1H-pyrrolo[1,2-a]indol-7-yl)-5-ethyl-4-hydroxy-2-oxo-1,2-dihydropyridine-3-carboxylic acid hydrochloride]	12.5 to 150 µg/mL	3.5 to 12.5 µg/mL	< 1 µg/mL	< 1 µg/mL	12.5 to 150 µg/mL	3.5 to 12.5 µg/mL	< 1 µg/mL	12.5 to 150 µg/mL	12.5 to 150 µg/mL
CCc1c(-c2ccc3c(c2)cc2n3CC(NC)CC2)[nH]c(=O)c(C(=O)O)c1O.Cl (stereo not drawn) [Cpd 414, 5-ethyl-4-hydroxy-6-(7-(methylamino)-6,7,8,9-tetrahydropyrido[1,2-a]indol-2-yl)-2-oxo-1,2-dihydropyridine-3-carboxylic acid hydrochloride]	12.5 to 150 µg/mL	3.5 to 12.5 µg/mL	< 1 µg/mL	< 1 µg/mL	12.5 to 150 µg/mL	3.5 to 12.5 µg/mL	1 to 3.5 µg/mL	12.5 to 150 µg/mL	12.5 to 150 µg/mL
CCc1c(-c2ccc3c(c2)cc2n3CC(NC)C2)[nH]c(=O)c(C(=O)O)c1O.Cl (stereo not drawn) [Cpd 416, 5-ethyl-4-hydroxy-6-(2-(methylamino)-2,3-dihydro-1H-pyrrolo[1,2-a]indol-7-yl)-2-oxo-1,2-dihydropyridine-3-carboxylic acid hydrochloride]	12.5 to 150 µg/mL	12.5 to 150 µg/mL	12.5 to 150 µg/mL	3.5 to 12.5 µg/mL	12.5 to 150 µg/mL	12.5 to 150 µg/mL	12.5 to 150 µg/mL	12.5 to 150 µg/mL	12.5 to 150 µg/mL
Cc1c(-c2ccc3c(c2)cc2n3CC(N(C)C)C2)[nH]c(=O)c(C(=O)O)c1O.Cl (stereo not drawn) [Cpd 417, 6-(2-(dimethylamino)-2,3-dihydro-1H-pyrrolo[1,2-a]indol-7-yl)-4-hydroxy-5-methyl-2-oxo-1,2-dihydropyridine-3-carboxylic acid hydrochloride]	12.5 to 150 µg/mL	3.5 to 12.5 µg/mL	12.5 to 150 µg/mL	1 to 3.5 µg/mL	12.5 to 150 µg/mL	< 1 µg/mL	12.5 to 150 µg/mL	12.5 to 150 µg/mL	< 1 µg/mL
CCc1c(-c2ccc3c(c2)cc2n3CC(N(C)C)C2)[nH]c(=O)c(C(=O)O)c1O.Cl (stereo not drawn) [Cpd 418, 6-(2-(dimethylamino)-2,3-dihydro-1H-pyrrolo[1,2-a]indol-7-yl)-5-ethyl-4-hydroxy-2-oxo-1,2-dihydropyridine-3-carboxylic acid hydrochloride]	12.5 to 150 µg/mL	3.5 to 12.5 µg/mL	3.5 to 12.5 µg/mL	3.5 to 12.5 µg/mL	12.5 to 150 µg/mL	< 1 µg/mL	3.5 to 12.5 µg/mL	12.5 to 150 µg/mL	3.5 to 12.5 µg/mL
CCc1c(-c2ccc3c(c2)cc2n3CC(N(C)CC)C2)[nH]c(=O)c(C(=O)O)c1O (stereo not drawn) [Cpd 419, 5-ethyl-6-(2-(ethyl(methyl)amino)-2,3-dihydro-1H-pyrrolo[1,2-a]indol-7-yl)-4-hydroxy-2-oxo-1,2-dihydropyridine-3-carboxylic acid]	12.5 to 150 µg/mL (≈ 31.6 to 379 µM)	3.5 to 12.5 µg/mL (≈ 8.85 to 31.6 µM)	3.5 to 12.5 µg/mL (≈ 8.85 to 31.6 µM)	< 1 µg/mL	3.5 to 12.5 µg/mL (≈ 8.85 to 31.6 µM)	1 to 3.5 µg/mL (≈ 2.53 to 8.85 µM)	3.5 to 12.5 µg/mL (≈ 8.85 to 31.6 µM)	12.5 to 150 µg/mL (≈ 31.6 to 379 µM)	3.5 to 12.5 µg/mL (≈ 8.85 to 31.6 µM)
CCCN(C)C1Cc2cc3cc(-c4[nH]c(=O)c(C(=O)O)c(O)c4CC)ccc3n2C1 (stereo not drawn) [Cpd 420, 5-ethyl-4-hydroxy-6-(2-(methyl(propyl)amino)-2,3-dihydro-1H-pyrrolo[1,2-a]indol-7-yl)-2-oxo-1,2-dihydropyridine-3-carboxylic acid]	12.5 to 150 µg/mL (≈ 30.5 to 366 µM)	12.5 to 150 µg/mL (≈ 30.5 to 366 µM)	12.5 to 150 µg/mL (≈ 30.5 to 366 µM)	< 1 µg/mL	3.5 to 12.5 µg/mL (≈ 8.55 to 30.5 µM)	3.5 to 12.5 µg/mL (≈ 8.55 to 30.5 µM)	3.5 to 12.5 µg/mL (≈ 8.55 to 30.5 µM)	12.5 to 150 µg/mL (≈ 30.5 to 366 µM)	3.5 to 12.5 µg/mL (≈ 8.55 to 30.5 µM)
Cc1c(-c2ccc3cc[nH]c3c2)[nH]c(=O)c(C(=O)O)c1O [Cpd 424, 4-hydroxy-6-(1H-indol-6-yl)-5-methyl-2-oxo-1,2-dihydropyridine-3-carboxylic acid]	12.5 to 150 µg/mL (≈ 44 to 528 µM)	12.5 to 150 µg/mL (≈ 44 to 528 µM)	12.5 to 150 µg/mL (≈ 44 to 528 µM)	3.5 to 12.5 µg/mL (≈ 12.3 to 44 µM)	3.5 to 12.5 µg/mL (≈ 12.3 to 44 µM)	< 1 µg/mL	12.5 to 150 µg/mL (≈ 44 to 528 µM)	12.5 to 150 µg/mL (≈ 44 to 528 µM)	< 1 µg/mL
CCc1c(-c2ccc3[nH]ccc3c2)[nH]c(=O)c(C(=O)O)c1O [Cpd 425, 5-ethyl-4-hydroxy-6-(1H-indol-5-yl)-2-oxo-1,2-dihydropyridine-3-carboxylic acid]	12.5 to 150 µg/mL (≈ 41.9 to 503 µM)	3.5 to 12.5 µg/mL (≈ 11.7 to 41.9 µM)	1 to 3.5 µg/mL (≈ 3.35 to 11.7 µM)	< 1 µg/mL	3.5 to 12.5 µg/mL (≈ 11.7 to 41.9 µM)	1 to 3.5 µg/mL (≈ 3.35 to 11.7 µM)	1 to 3.5 µg/mL (≈ 3.35 to 11.7 µM)	12.5 to 150 µg/mL (≈ 41.9 to 503 µM)	< 1 µg/mL
